{"source": "paper PMC8746798", "about": "“Evaluation of 2-Thioxoimadazolidin-4-one Derivatives as Potent Anti-Cancer Agents through Apoptosis Induction and Antioxidant Activation: In Vitro and In Vivo Approaches” (Molecules, 2021)", "key": {"[1]": {"assay": "Histopathological examination of liver and kidney (H&E)", "assay_type": "in vivo, mice", "details": "SEC-bearing mice treated", "protocol": "(§1) We randomly divided 50 mice into groups 5 groups (10 mice in each group): normal control (I) (mice injected intraperitoneally with the same volume of solvent for 14 consecutive days); group II, a group of normal mice treated with compound 4 (mice injected intraperitoneally with newly produced compound 4 at a dose of 6 mg/kg per day for 14 days); group III, solid tumor group (mice were implanted with solid tumor); group IV, group were treated with 5-FU (after 10 days of tumor implantation, mice were treated with 6 mg/kg only once); and group V, solid tumor group were treated with compound 4 (after 10 days of tumor implantation, mice were treated with 6 mg/kg only once). after one day of the previous treatment, 10 mice from each group were sacrificed and tumor weight, tumor volume (length and width of solid femoral tumor), blood and liver samples were obtained from each group. A portion of each blood sample taken was used for complete blood count (CBC) and the rest was centrifuged to obtain the serum. Serum was used for biochemical parameter estimation. The livers were rapidly dissected, washed with isotonic saline, and dried. The experiment design is summarized in Supplementary Figure S3.\n(§2) Complete blood counts (CBCs) were counted using an AbbottCELLDYN®1800 Automated Hematology Analyzer (Abbott Park, IL, USA) equipped with an off-the-shelf kit (Abbott Laboratories, Abbott Park, IL, USA). For microscopic histopathological examination, tumor and kidney slices were maintained in 10% formalin, dehydrated with graduated alcohol, embedded in paraffin sections, H&E stained, and hematoxylin stained.\nSpecimens from mice liver cells were fixed in 10% formalin saline. Then, the samples were dehydrated with ascending series of ethanol and embedded in paraffin. A […] thick section was stained with hematoxylin and eosin and examined under a light microscope."}, "[2]": {"assay": "Serum biochemical parameters in mice", "assay_type": "in vivo", "details": "SEC-bearing mice, 6 mg/Kg BW", "protocol": "as §1\nEvaluation of the activities of aspartate aminotransferase (AST) and alanine aminotransferase (ALT) using a commercial kit (ELITech Clinical Systems, France). The serum albumin level was measured using a kit obtained from STANBIO Company (USA). A commercial kit from the BioDiagnostic Company (Cairo, Egypt) was used to evaluate creatinine and urea levels."}, "[3]": {"tested_on": "HepG2 liver cancer cells", "assay": "MTT assay for cytotoxic screening, HepG2", "assay_type": "cell-based, human", "details": "mean ± SE, n = 3", "protocol": "The in vitro anti-cancer activity was assessed using the MTT assay. […] Staurosporine and 5-FU were used as reference drugs. HepG2 cells (1 × 10^4 cells/well, 96-well plate) were maintained in DMEM media supplemented with 2mML-glutamine (Lonza, Verviers, Belgium) and 10% FBS (Sigma, St. Louis, MO, USA), 1% Penicillin/Streptomycin (Lonza, Verviers, Belgium) according to the routine culture work. Cultures were incubated for 48 h with serial dilutions (0.01, 0.1, 1, 10, 100 µM) of the tested compounds. Finally, cell viability was determined by measuring the absorbance λ570 nm according to the following formula: % of cell viability = (A sapmple/A control) ×100, then IC50 calculation was calculated using GraphPad Prism 7 software."}, "[4]": {"assay": "Hematological parameters (CBC) in mice", "assay_type": "in vivo", "details": "SEC-bearing mice, 6 mg/Kg BW", "protocol": "as §1, §2"}, "[5]": {"tested_on": "Solid Ehrlich carcinoma (SEC)", "assay": "In vivo anti-tumor assay: tumor volume and tumor inhibition ratio", "details": "SEC-bearing mice, 6 mg/kg; SEC control 5802 mm^3", "protocol": "We used adult Swiss albino female mice with average body weight 18–23 g obtained from Theodor Bilharzia Research Institute in Giza, Egypt. Mice were kept under constant conditions of a 12 h light–dark cycle at temperatures below controlled moisture conditions (22 ± 2 °C) with standard laboratory mouse nutrition and water entries. Approval for the experimental protocol was provided from the ethical committee of Suez Canal University for this experimental protocol (approval number REC-06-2020, Faculty of Science, Suez Canal University). Mice were adapted for approximately 10 days before use in the experiment.\nSolid Ehrlich carcinoma (SEC) was obtained from the National Cancer Institute (University of Cairo, Egypt). The tumor cell line proliferated in mice after serial implantation of the peritoneal cavity (I.P.) in 0.2 mL of physiological saline containing 1 × 10^6 viable cells for 24 h. […]\nWe measured the length and width of the tumor using a digital Vernier clipper (Tricle Brand, Shanghai, China), then we calculate the tumor volume using the formula: V = (L × W × W)/2, where V is tumor volume, W is tumor width, and L is tumor length, and calculated the tumor inhibition ratio% using the formula: TIR %= (C − T)/C × 100, where T represents mean tumor volume of treated group and C represents mean tumor volume of the control group."}, "[6]": {"tested_on": "THLE-2 normal liver cells", "assay": "MTT assay, normal liver cells", "assay_type": "cell-based", "details": "n = 3"}, "[7]": {"details": "Homo sapiens, THLE-2, mean ± SE"}}, "note": "Entries after “also recorded” stand apart in the source; their conditions may differ.", "data": [{"smiles": "O=c1[nH]cc(F)c(=O)[nH]1", "note": "[Compound 5-FU, reference compound]", "values": [{"measurement": "kidney histopathology", "setting": "[1]", "result": "moderate improvement; also recorded: few tubules show evidence of renal acute tubular injury ATI"}, {"measurement": "liver histopathology", "setting": "[1]", "result": "Hydropic degeneration of hepatocytes, nuclear pyknosis, and karyolysis still occurred"}, {"measurement": "Creatinine", "setting": "[2]", "result": "0.8 ± 0.1", "unit": "mg/dL"}, {"measurement": "Albumin", "setting": "[2]; SEC control 4.01 ± 0.4", "result": "4.1 ± 0.3", "unit": "g/dL"}, {"measurement": "Total Protein", "setting": "[2]; SEC control 6.6 ± 0.4", "result": "7.2 ± 0.4", "unit": "g/dL"}, {"measurement": "Urea", "setting": "[2]; SEC control 25.2 ± 2.3", "result": "26.1 ± 2.7", "unit": "mg/dL"}, {"measurement": "AST", "setting": "[2]; SEC control 48.9 ± 5.5", "result": "38 ± 4.6", "unit": "U/L"}, {"measurement": "ALT", "setting": "[2]; SEC control 50 ± 2.7", "result": "39.1 ± 3.6", "unit": "U/L"}, {"measurement": "IC50", "setting": "[3]; 48 h", "result": "5.18 ± 0.53", "unit": "µM"}, {"measurement": "RBC’s count", "setting": "[4]; SEC control 7.52 ± 0.5", "result": "7.5 ± 0.8 ×10^6/µL"}, {"measurement": "Hemoglobin", "setting": "[4]; SEC control 11.8 ± 0.8, mean ± SE n = 9", "result": "10.6 ± 1.1", "unit": "g/dL"}, {"measurement": "WBC’s count", "setting": "[4]; SEC control 16.5 ± 3.4", "result": "13.1 ± 4.1 ×10^3/µL"}, {"measurement": "tumor volume on the final day", "setting": "[5]", "result": 4177, "unit": "mm^3"}, {"measurement": "IC50", "setting": "[6]; mean ± SE", "result": "43 ± 1.29", "unit": "µM"}]}, {"smiles": "CN[C@@H]1C[C@H]2O[C@@](C)([C@@H]1OC)n1c3ccccc3c3c4c(c5c6ccccc6n2c5c31)C(=O)NC4", "note": "[Staurosporine, reference compound]", "values": [{"measurement": "IC50", "setting": "[3]; Homo sapiens, HepG2, 48 h", "result": "5.07 ± 0.22", "unit": "µM"}]}, {"smiles": "CC(C)CC1(CN2CCOCC2)NC(=S)N(CN2CCOCC2)C1=O", "note": "(stereo not drawn) [Compound 12, 5-Isobutyl-3,5-bis(morpholinomethyl)-2-thioxoimidazolidin-4-one]", "values": [{"measurement": "IC50", "setting": "[3]; Homo sapiens, HepG2, 48 h", "result": "1.13 ± 0.066", "unit": "µM"}]}, {"smiles": "COc1ccc(/C=C2\\C(=O)NC(=S)N2c2ccccc2)cc1", "note": "[Compound 1, (E)-5-(4-Methoxybenzylidene)-1-phenyl-2-thioxoimidazolidin-4-one]", "values": [{"measurement": "IC50", "setting": "[3]; Homo sapiens, HepG2, 48 h", "result": "27.8 ± 0.94", "unit": "µM"}]}, {"smiles": "CC(C)C1NC(=S)N(CN2CCOCC2)C1=O", "note": "(stereo not drawn) [Compound 10, 5-Isopropyl-3-(morpholinomethyl)-2-thioxoimidazolidin-4-one]", "values": [{"measurement": "IC50", "setting": "[3]; Homo sapiens, HepG2, 48 h", "result": "64.8 ± 1.63", "unit": "µM"}]}, {"smiles": "C=CCN1C(=O)/C(=C\\c2ccc(C)cc2)NC1=S", "note": "[Compound 6, (E)-3-Allyl-5-(4-methylbenzylidene)-2-thioxoimidazolidin-4-one]", "values": [{"measurement": "IC50", "setting": "[3]; Homo sapiens, HepG2, 48 h", "result": "0.61 ± 0.08", "unit": "µM"}, {"measurement": "IC50", "setting": "[6]; [7]", "result": "35.1 ± 1.33", "unit": "µM"}]}, {"smiles": "O=C1/C(=C\\c2cccs2)NC(=S)N1c1ccccc1", "note": "[Compound 7, (E)-3-Phenyl-5-(thiophen-2-ylmethylene)-2-thioxoimidazolidin-4-one]", "values": [{"measurement": "IC50", "setting": "[3]; Homo sapiens, HepG2, 48 h", "result": "0.41 ± 0.009", "unit": "µM"}, {"measurement": "IC50", "setting": "[6]; [7]", "result": "15.4 ± 0.74", "unit": "µM"}]}, {"smiles": "CC(C)C1(CN2CCCCC2)NC(=S)N(CN2CCCCC2)C1=O", "note": "(stereo not drawn) [Compound 11, 5-Isopropyl-3,5-bis(piperidin-1-ylmethyl)-2-thioxoimidazolidin-4-one]", "values": [{"measurement": "IC50", "setting": "[3]; Homo sapiens, HepG2, 48 h", "result": "1.14 ± 0.05", "unit": "µM"}]}, {"smiles": "O=C1NC(=S)N(c2ccccc2)/C1=C/c1cc2ccccc2[nH]1", "note": "[Compound 2, (E)-5-((1H-Indol-2-yl)methylene)-1-phenyl-2-thioxoimidazolidin-4-one]", "values": [{"measurement": "IC50", "setting": "[3]; Homo sapiens, HepG2, 48 h", "result": "0.18 ± 0.03", "unit": "µM"}, {"measurement": "IC50", "setting": "[6]; [7]", "result": "16.9 ± 1.11", "unit": "µM"}]}, {"smiles": "CN1C(=S)NC(=O)/C1=C\\c1ccc(N(C)C)cc1", "note": "[Compound 3, (E)-5-(4-(Dimethylamino)benzylidene)-1-methyl-2-thioxoimidazolidin-4-one]", "values": [{"measurement": "IC50", "setting": "[3]; Homo sapiens, HepG2, 48 h", "result": "8.93 ± 0.75", "unit": "µM"}]}, {"smiles": "CN1C(=S)N(CCN2CCOCC2)C(=O)/C1=C\\c1ccc2c(c1)OCO2", "note": "[Compound 5, (E)-5-(3,4-Methylenedioxybenzylidene)-3-[2-(4-morpholino)ethyl]-1-methyl-2-thioxo-imidazolidin-4-one]", "values": [{"measurement": "IC50", "setting": "[3]; Homo sapiens, HepG2, 48 h", "result": "1.94 ± 0.09", "unit": "µM"}]}]}
